What was measured:
[1] = molecular target: T1, human melanocortin-4 receptor (MC-4R) (Homo sapiens, UniProt P32245); experiment: Membrane binding assay: competition with fluorescence labeled NDP-alpha-MSH, fluorescence polarization; conditions: HEK293 cell membrane preparations expressing human MC-4R, read-out: hMC-4R binding assay IC50
T1 construct: expressed in transfected cells; host or cells: HEK293

[2] = molecular target: T1, human melanocortin-4 receptor (MC-4R); experiment: Functional assay: agonistic activity, cAMP production in membrane preparations compared with NDP-alpha-MSH, fluorescence polarization; assay type: biochemical; conditions: for Emax: cAMP produced compared to stimulation with NDP-alpha-MSH, read-out: % activation functional assay

T1 sequence (P32245 whole entry): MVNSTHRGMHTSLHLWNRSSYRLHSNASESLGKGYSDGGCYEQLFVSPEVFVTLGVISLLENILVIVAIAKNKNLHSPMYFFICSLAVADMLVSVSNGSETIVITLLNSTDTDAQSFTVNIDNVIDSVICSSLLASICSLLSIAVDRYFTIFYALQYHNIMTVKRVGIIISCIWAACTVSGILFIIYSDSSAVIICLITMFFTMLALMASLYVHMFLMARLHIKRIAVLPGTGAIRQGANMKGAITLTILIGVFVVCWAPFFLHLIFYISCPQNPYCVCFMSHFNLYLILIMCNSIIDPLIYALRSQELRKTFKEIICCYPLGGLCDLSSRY

Row | Compound | IC50 [1] | Emax [2] | EC50 ([2]; cAMP production, membrane preparations from HEK293 cells expressing human MC-4R, read-out: hMC-4R functional assay EC50)
1 | CC[C@H](COc1cccnc1C1CCN(C(=O)[C@@H](Cc2ccc(Cl)cc2Cl)NC(=O)N2CC(O)(C(C)C)C2)CC1)N(C)C [Example 122] | ≤ 0.1 µM | 0% | 
2 | CC[C@H](COc1cccnc1C1CCN(C(=O)[C@@H](Cc2ccc(Cl)cc2Cl)NC(=O)N2CCC[C@@H](O)C2)CC1)N(C)C [Example 113] | ≤ 0.1 µM | -14% | 
3 | CC[C@H](COc1cccnc1C1CCN(C(=O)[C@@H](Cc2ccc(Cl)cc2Cl)NC(=O)N2CC(OC(C)=O)C2)CC1)N1CCCC1 [Example 100] | ≤ 0.1 µM | -7% | 
4 | CC[C@H](COc1cccnc1C1CCN(C(=O)[C@@H](Cc2ccc(Cl)cc2Cl)NC(=O)N(C)CCOC)CC1)N1CCCC1 [Example 87] | ≤ 0.1 µM | 0% | 
5 | Cc1ccc(C2CCN(C(=O)[C@@H](Cc3ccc(Cl)cc3Cl)NC(=O)N3CCCC3)CC2)c(OCCN2CCCC2)n1 [Example 6] | ≤ 0.1 µM | 0% | 
6 | CC[C@H](COc1cccnc1C1CCN(C(=O)[C@@H](Cc2ccc(Cl)cc2Cl)NC(=O)N2CCSC2)CC1)N1CCCC1 [Example 88] | ≤ 0.1 µM | 0% | 
7 | CC[C@H](COc1cc(F)cnc1C1CCN(C(=O)[C@@H](Cc2ccc(Cl)cc2Cl)NC(=O)N2CC(O)C2)CC1)N(C)C [Example 75] | ≤ 0.1 µM | -1% | 
8 | CC[C@H](COc1cccnc1C1CCN(C(=O)[C@@H](Cc2ccc(Cl)cc2Cl)NC(=O)N2CCOC[C@@H]2C)CC1)N1CCCC1 [Example 92] | ≤ 0.1 µM | 0% | 
9 | CC[C@H](COc1cccnc1C1CCN(C(=O)[C@@H](Cc2ccc(Cl)cc2Cl)NC(=O)N2CC[C@@H](O)C2)CC1)N(C)C [Example 116] | ≤ 0.1 µM | -1% | 
10 | CC[C@H](COc1cccnc1C1CCN(C(=O)[C@@H](Cc2ccc(Cl)cc2Cl)NC(=O)N(C)CC2(C)COC2)CC1)N(C)C [Example 134] | ≤ 0.1 µM | -2% | 
11 | CC[C@H](COc1cccnc1C1CCN(C(=O)[C@@H](Cc2ccc(Cl)cc2Cl)NC(=O)N2CCOCC2)CC1)N1CCCC1 [Example 91] | ≤ 0.1 µM | 0% | 
12 | CN(C)C[C@@H](Oc1cccnc1C1CCN(C(=O)[C@@H](Cc2ccc(Cl)cc2Cl)NC(=O)N2CCCC2)CC1)C(F)(F)F [Example 58] | 0.1 to 1 µM | 4% | 
13 | CC[C@@H](CN(C)C)Oc1cc(F)cnc1C1CCN(C(=O)[C@@H](Cc2ccc(Cl)cc2Cl)NC(=O)N2CCCC2)CC1 [Example 61] | ≤ 0.1 µM | 1% | 
14 | CC[C@@H](CN(C)C)Oc1cccnc1C1CCN(C(=O)[C@@H](Cc2ccc(Cl)cc2Cl)NC(=O)N(C)CCOC)CC1 [Example 138] | ≤ 0.1 µM | 9% | 
15 | CC[C@H](COc1cccnc1C1CCN(C(=O)[C@@H](Cc2ccc(Cl)cc2Cl)NC(=O)N(CC)CC)CC1)N1CCCC1 [Example 78] | ≤ 0.1 µM | 0% | 
16 | CN1CCOC[C@H](Oc2cccnc2C2CCN(C(=O)[C@@H](Cc3ccc(Cl)cc3Cl)NC(=O)N3CCCC3)CC2)C1 [Example 48] | ≤ 0.1 µM | 0% | 
17 | CC[C@H](COc1cccnc1C1CCN(C(=O)[C@@H](Cc2ccc(Cl)cc2Cl)NC(=O)N(C)CC)CC1)N1CCCC1 [Example 79] | ≤ 0.1 µM | 0% | 
18 | CC[C@@H](CN1CCCC1)Oc1ncccc1C1CCN(C(=O)[C@@H](Cc2ccc(Cl)cc2Cl)NC(=O)N2CCCC2)CC1 [Example 7] | ≤ 0.1 µM | 0% | 
19 | O=C(N[C@H](Cc1ccc(Cl)cc1Cl)C(=O)N1CCC(c2cccnc2OCCN2CCCC2)CC1)N1CCCC1 [Example 5] | ≤ 0.1 µM | 0% | 
20 | CC[C@H](COc1cccnc1C1CCN(C(=O)[C@@H](Cc2ccc(Cl)cc2Cl)NC(=O)N2CC[C@H](OC(C)=O)C2)CC1)N(C)C [Example 117] | ≤ 0.1 µM | 0% | 
21 | CN1CC(Oc2cccnc2C2CCN(C(=O)[C@@H](Cc3ccc(Cl)cc3Cl)NC(=O)N3CCCC3)CC2)C1 [Example 41] | 0.1 to 1 µM | -1% | 
22 | CN1CCO[C@@H](COc2cccnc2C2CCN(C(=O)[C@@H](Cc3ccc(Cl)cc3Cl)NC(=O)N3CCCC3)CC2)C1 [Example 53] | > 1 µM | 1% | 
23 | CN(C)[C@@H]1CCC[C@@H]1Oc1cccnc1C1CCN(C(=O)[C@@H](Cc2ccc(Cl)cc2Cl)NC(=O)N2CCCC2)CC1 [Example 57] | ≤ 0.1 µM | 5% | 
24 | COC[C@H](CN(C)C)Oc1cccnc1C1CCN(C(=O)[C@@H](Cc2ccc(Cl)cc2Cl)NC(=O)N2CCCC2)CC1 [Example 46] | > 1 µM | -13% | 
25 | CN1CC[C@@H](COc2cccnc2C2CCN(C(=O)[C@@H](Cc3ccc(Cl)cc3Cl)NC(=O)N3CCCC3)CC2)C1 [Example 54] | 0.1 to 1 µM | 10% | 
26 | CC[C@H](COc1cccnc1C1CCN(C(=O)[C@@H](Cc2ccc(Cl)cc2Cl)NC(=O)N2CCC=N2)CC1)N1CCCC1 [Example 95] | ≤ 0.1 µM | 0% | 

Row | Compound | IC50 [1] | Emax [2] | EC50 ([2]; cAMP production, membrane preparations from HEK293 cells expressing human MC-4R, read-out: hMC-4R functional assay EC50)
27 | CC[C@H](COc1cccnc1C1CCN(C(=O)[C@@H](Cc2ccc(Cl)cc2Cl)NC(=O)N2CC[C@H](OC)C2)CC1)N(C)C [Example 109] | ≤ 0.1 µM | -11% | 
28 | CC[C@H](COc1cccnc1C1CCN(C(=O)[C@@H](Cc2ccc(Cl)cc2Cl)NC(=O)N2CCC(C)(O)CC2)CC1)N(C)C [Example 112] | ≤ 0.1 µM | -8% | 
29 | CC[C@H](COc1cccnc1C1CCN(C(=O)[C@@H](Cc2ccc(Cl)cc2Cl)NC(=O)N2CC[C@@H](O)C2)CC1)N1CCCC1 [Example 80] | ≤ 0.1 µM | 0% | 
30 | O=C(N[C@H](Cc1ccc(Cl)cc1Cl)C(=O)N1CCC(c2cccnc2O[C@H]2CN3CCC2CC3)CC1)N1CCCC1 [Example 10] | 0.1 to 1 µM | 0% | 
31 | CC[C@H](COc1cccnc1C1CCN(C(=O)[C@@H](Cc2ccc(Cl)cc2Cl)NC(=O)N2CCC(O)(CC3CC3)C2)CC1)N(C)C (stereo partly drawn) [Example 130] | ≤ 0.1 µM | -2% | 
32 | CC[C@H](COc1cccnc1C1CCN(C(=O)[C@@H](Cc2ccc(Cl)cc2Cl)NC(=O)N(CCOC)CCOC)CC1)N1CCCC1 [Example 85] | ≤ 0.1 µM | 0% | 
33 | CC[C@H](COc1cccnc1C1CCN(C(=O)[C@@H](Cc2ccc(Cl)cc2Cl)NC(=O)N2CC(O)C2)CC1)N(C)C [Example 102] | ≤ 0.1 µM | -1% | 
34 | CC[C@H](COc1cccnc1C1CCN(C(=O)[C@@H](Cc2ccc(Cl)cc2Cl)NC(=O)N2CCC[C@@H]2CO)CC1)N(C)C [Example 107] | ≤ 0.1 µM | -2% | 
35 | C[C@H](Oc1cccnc1C1CCN(C(=O)[C@@H](Cc2ccc(Cl)cc2Cl)NC(=O)N2CCCC2)CC1)[C@@H](C)N(C)C [Example 22] | ≤ 0.1 µM | 0% | 
36 | CN1CCC[C@@H]1COc1cccnc1C1CCN(C(=O)[C@@H](Cc2ccc(Cl)cc2Cl)NC(=O)N2CCCC2)CC1 [Example 45] | ≤ 0.1 µM | -27% | 0.1 to 1 µM
37 | CC[C@H](COc1cccnc1C1CCN(C(=O)[C@@H](Cc2ccc(Cl)cc2Cl)NC(=O)N2CCCC(C)(O)C2)CC1)N(C)C (stereo partly drawn) [Example 125] | ≤ 0.1 µM | -8% | 
38 | CC[C@H](COc1cc(Cl)cnc1C1CCN(C(=O)[C@@H](Cc2ccc(C)cc2C)NC(=O)N2CC(O)C2)CC1)N(C)C [Example 74] | ≤ 0.1 µM | -5% | 
39 | CC[C@H](COc1cccnc1C1CCN(C(=O)[C@@H](Cc2ccc(Cl)cc2Cl)NC(=O)N2CC[C@@H](OC)C2)CC1)N(C)C [Example 108] | ≤ 0.1 µM | 0% | 
40 | CN1CCO[C@H](COc2cccnc2C2CCN(C(=O)[C@@H](Cc3ccc(Cl)cc3Cl)NC(=O)N3CCCC3)CC2)C1 [Example 49] | 0.1 to 1 µM | -3% | 
41 | CC[C@H](COc1cc(Cl)cnc1C1CCN(C(=O)[C@@H](Cc2ccc(Cl)cc2Cl)NC(=O)N2CCCC2)CC1)N1CCCC1 [Example 40] | ≤ 0.1 µM | -11% | 
42 | CC[C@H](COc1cccnc1C1CCN(C(=O)[C@@H](Cc2ccc(Cl)cc2Cl)NC(=O)N2CCCO2)CC1)N1CCCC1 [Example 94] | ≤ 0.1 µM | 0% | 
43 | CC[C@H](COc1cccnc1C1CCN(C(=O)[C@@H](Cc2ccc(Cl)cc2Cl)NC(=O)N2CC(O)C2)CC1)N1CCCC1 [Example 84] | ≤ 0.1 µM | 0% | 
44 | CN1CCN(CCOc2cccnc2C2CCN(C(=O)[C@@H](Cc3ccc(Cl)cc3Cl)NC(=O)N3CCCC3)CC2)CC1 [Example 37] | 0.1 to 1 µM | -2% | 
45 | CC[C@H](COc1cccnc1C1CCN(C(=O)[C@@H](Cc2ccc(Cl)cc2Cl)NC(=O)N2CC[C@@H](N)C2)CC1)N(C)C [Example 131] | ≤ 0.1 µM | -2% | 
46 | CC[C@@H](CN(C)C)Oc1cccnc1C1CCN(C(=O)[C@@H](Cc2ccc(Cl)cc2Cl)NC(=O)N2CC[C@H](O)C2)CC1 [Example 137] | ≤ 0.1 µM | 8% | 
47 | CC[C@H](COc1cccnc1C1CCN(C(=O)[C@@H](Cc2ccc(Cl)cc2Cl)NC(=O)N2CCC(F)CC2)CC1)N1CCCC1 [Example 82] | ≤ 0.1 µM | 0% | 
48 | CC[C@@H](COc1cccnc1C1CCN(C(=O)[C@@H](Cc2ccc(Cl)cc2Cl)NC(=O)N2CCCC2)CC1)N1CCCC1 [Example 31] | ≤ 0.1 µM | -3% | 
49 | CN1CCC[C@H](Oc2cccnc2C2CCN(C(=O)[C@@H](Cc3ccc(Cl)cc3Cl)NC(=O)N3CCCC3)CC2)C1 [Example 21] | ≤ 0.1 µM | 0% | 
50 | CC[C@H](COc1cccnc1C1CCN(C(=O)[C@@H](Cc2ccc(Cl)cc2Cl)NC(=O)N2CC(OC)C2)CC1)N1CCCC1 [Example 98] | ≤ 0.1 µM | 13% | 
51 | CC[C@H](COc1cc(C)cnc1C1CCN(C(=O)[C@@H](Cc2ccc(Cl)cc2Cl)NC(=O)N2CCCC2)CC1)N1CCCC1 [Example 24] | ≤ 0.1 µM | 0% | 
52 | CC[C@H](COc1cccnc1C1CCN(C(=O)[C@@H](Cc2ccc(Cl)cc2Cl)NC(=O)N2CC[C@@H](N(C)C)C2)CC1)N(C)C [Example 132] | ≤ 0.1 µM | -4% | 

Reference: patent US20100249093A1, “Substituted Heteroarylpiperidine Derivatives As Melanocortin-4 Receptor Modulators” (SANTHERA PHARMACEUTICALS (SCHWEIZ) AG, priority 2007, published 2010)
